From US6723302B1, “Model for cell migration and use thereof” (The Research Foundation of State University of New York, priority 1996, dated 2004)

Assays:
[1] = test system: human adult dermal fibroblasts; assay: Three-dimensional transmigration model (collagen gel into fibrin gel); type: cell-based; conditions: for inhibition of transmigration by peptide added to the fibrin gel: transmigration stimulated by PR or PDGF-BB
Experimental: (§1) Primary cultures of human adult dermal fibroblasts were cultured in Dulbecco's modified Eagle's medium (DMEM, Life Technologies) supplemented with 100 U/ml penicillin and 100 μg/ml streptomycin, 42 mmol/l sodium bicarbonate and 10% fetal bovine serum (FBS, Atlanta Biologicals, Norcross, Ga.) at 37° C. and 5% CO2/95% air in a humidified atmosphere. The cells were used between passages 4 and 12.
(§2) Fibroblast cultures at 80% confluence were harvested by treatment with 0.05% trypsin/0.02% EDTA (ethylenediaminetetraacetic acid). Trypsin was inactivated by addition of soy bean trypsin inhibitor in PBS containing 0.2% BSA. The cells were washed twice with DMEM+10% FBS and resuspended at a concentration of 1×10^6 cells/ml. The fibroblasts were mixed with DMEM (5×), 10% FBS and neutralized collagen (Vitrogen 100, Celtrix Labs., Santa Clara, Calif.). In some experiments, FBS was replaced by 30 ng/ml PDGF-BB and 2% BSA. 0.6 ml aliquots of the cell mixture were added to the wells of a 24-well tissue culture plate, precoated with 2% BSA, and the collagen was allowed to polymerize at 37° C. The final concentration of collagen was 1.8 mg/ml and each gel contained 6×10^4 cells. After two hours incubation, the gels were gently detached from the plastic surface to allow contraction, 0.5 ml DMEM+10% FBS was added, and the gels were incubated overnight at 37° C. in 5% CO2.
Fibrinogen was mixed with DMEM (5×) and 0.5 U/ml thrombin (New York Blood Center, New York, N.Y.) so that the final concentration of fibrinogen was 300 μg/ml. Aliquots of 450 μl were added to the wells of a 24-well plate, and after a 2 hour incubation at 37° C. in 5% CO2, the polymerized gels were dried overnight at room temperature under sterile conditions.
Dried fibrin fibril-coated dishes were washed once with PBS and contracted collagen gels were placed on the surface. Fibrinogen, at a final concentration of 300 μg/ml, was mixed with DMEM (5×) and 1.0 U/ml thrombin. When needed, other supplements, such as growth factors, were added to the mixture. The collagen gels were surrounded with the fibrinogen solution so that the fibrin gel was level with the collagen gel (FIG. 1)
The number of migrated cells was evaluated under a Nikon inverted phase microscope by counting identifiable cell nuclei located outside of the contracted collagen gel, either on the fibrin fibril substrate (two-dimensional model) or within the fibrin gel (three-dimensional model). Each condition was assayed in triplicate and experiments were repeated at least three times.

[2] = test system: human adult dermal fibroblasts; assay: Two-dimensional outmigration model (collagen gel onto dried fibrin fibrils); type: cell-based; conditions: collagen gel surrounded with liquid medium instead of fibrin gel
Experimental: as §1
as §2, with “The final concentration of collagen was 1.8 mg/ml and each gel contained 6×10^4 cells. After two hours incubation, the gels were gently detached from the plastic surface to allow contraction, 0.5 ml DMEM+10% FBS was added, and the gels were incubated overnight at 37° C. in 5% CO2.” left out
The number of migrated cells was evaluated under a Nikon inverted phase microscope by counting identifiable cell nuclei located outside of the contracted collagen gel, either on the fibrin fibril substrate (two-dimensional model) or within the fibrin gel (three-dimensional model). […]

NCCCCCC(=O)O [ε-ACA, ε-Amino-n-Caproic acid]
inhibition of transmigration induced by PDGF-BB (protease inhibitors) ([1]; in words): inhibited
reduction of invasion of the fibrin gel ([1]; transmigration induced by PDGF-BB, 500 μg/ml ε-ACA): about 80%
inhibition of outmigration onto dried fibrin fibrils induced by PDGF-BB [2]: not inhibited

GRGDSP [synthetic RGD peptide]
inhibition of transmigration by peptide added to the fibrin gel [1]: inhibited

GRGESP [control-peptide]
inhibition of transmigration by peptide added to the fibrin gel [1]: not

B1: PDGF-BB: Recombinant platelet-derived growth factor from ZymoGenetics (protein, UniProt P01127 82-190, looked up)
Platelet-derived growth …: SLGSLTIAEPAMIAECKTRTEVFEISRRLIDRTNANFLVWPPCVEVQRCSGCCNNRNVQCRPTQVQLRPVQVRKIEIVRKKPIFKKATVTLEDHLACKCETVAAARPVT
induction of transmigration of fibroblasts from the collagen gel into the fibrin gel ([1]; counted after one day): could be induced
